For the experiment, the target named is T1, myofibril associated μ-calpain (Mus musculus, UniProt O35350).
T1 construct: To test whether endogenous calpain in the cardiac muscle contributes to TnT NH2-terminal modification; from tissue
T1 sequence (O35350 1-713): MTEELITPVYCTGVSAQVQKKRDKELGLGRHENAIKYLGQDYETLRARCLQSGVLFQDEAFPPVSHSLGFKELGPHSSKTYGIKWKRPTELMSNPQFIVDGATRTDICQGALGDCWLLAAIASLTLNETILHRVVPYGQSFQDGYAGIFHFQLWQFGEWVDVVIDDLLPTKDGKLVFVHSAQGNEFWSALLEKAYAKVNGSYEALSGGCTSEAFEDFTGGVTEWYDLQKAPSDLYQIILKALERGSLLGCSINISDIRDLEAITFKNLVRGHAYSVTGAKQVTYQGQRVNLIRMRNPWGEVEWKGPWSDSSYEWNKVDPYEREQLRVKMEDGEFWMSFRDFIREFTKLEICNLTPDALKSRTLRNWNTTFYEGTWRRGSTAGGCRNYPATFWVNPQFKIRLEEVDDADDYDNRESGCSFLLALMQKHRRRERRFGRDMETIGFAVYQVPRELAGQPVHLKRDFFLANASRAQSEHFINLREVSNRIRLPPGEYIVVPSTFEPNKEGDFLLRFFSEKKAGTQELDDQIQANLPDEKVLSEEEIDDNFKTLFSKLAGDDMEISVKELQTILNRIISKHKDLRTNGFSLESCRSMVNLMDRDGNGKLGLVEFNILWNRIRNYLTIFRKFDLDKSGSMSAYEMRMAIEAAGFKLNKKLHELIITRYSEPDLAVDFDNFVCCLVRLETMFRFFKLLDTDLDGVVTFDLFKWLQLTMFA
T1 sequence (O88456 1-268 partner): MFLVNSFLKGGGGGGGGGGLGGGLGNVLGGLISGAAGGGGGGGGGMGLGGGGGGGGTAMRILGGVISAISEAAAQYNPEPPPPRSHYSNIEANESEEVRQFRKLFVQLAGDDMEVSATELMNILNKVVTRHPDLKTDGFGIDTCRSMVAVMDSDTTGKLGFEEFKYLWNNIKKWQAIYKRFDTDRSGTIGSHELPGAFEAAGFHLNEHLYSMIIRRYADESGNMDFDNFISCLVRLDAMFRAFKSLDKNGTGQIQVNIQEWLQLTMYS
Description: Calpain inhibition of cTnT-ND production in TRITON X-100 extracted ventricular muscle strips (Western blot densitometry). Particulars: calpain specific inhibitor; TRITON X-100 extracted mouse cardiac muscle strips. Format: biochemical. How it is done:
SDS-PAGE and Western blotting. Ventricular muscle tissues or myocytes were homogenized in Laemmli SDS-PAGE sample buffer containing 2% SDS, heated at 80° C. for 5 min, and clarified by centrifugation. Total protein extracts were resolved by 14% Laemmli gel with an acrylamide:bisacrylamide ratio of 180:1 (low cross linker) or by 15% Laemmli gel with an acrylamide:bisacrylamide ratio of 29:1 (high cross linker). The gels were stained with Coomassie Brilliant Blue R250 to reveal the resolved protein bands. Duplicate gels were electrically blotted to nitrocellulose membranes, as described previously (21). After blocking in Tris-buffered saline (TBS) containing 1% bovine serum albumin (BSA), the membrane was incubated with anti-TnT mAbs CT3, 2C8, or polyclonal antibody RATnT. The membranes were then washed with high stringency using TBS containing 0.5% TRITON® X-100 and 0.05% SDS, incubated with alkaline phosphatase-conjugated anti-mouse IgG or anti-rabbit IgG second antibodies (Sigma), washed again, and developed in 5-bromo-4-chloro-3-indolylphosphate/nitro blue tetrazolium substrate solution, as described previously (21).
TRITON® X-100 extraction of ventricular muscle strips. In an ice container, ventricular muscle was cut with a sharp razor blade into fine pieces approximately the size of isolated trabeculae. The muscle strips were washed in relaxing solution containing […], 2 mM MgCl2, 2 mM EGTA, 10 mM Tris, 0.5 mM DTT, 0.1 mM PMSF and 2 mM Na4P2O7. After centrifugation at 2,800×g at 4° C. for 15 min, the pellet was skinned in relaxing solution plus 0.5% (w/w) TRITON® X-100 at 4° C. with rotation for 10 min. After centrifugation at 14,000×g at 4° C. for 20 min, the pellet was suspended in relaxing solution without TRITON® X-100 and incubated at 37° C. with rotation. Samples were collected at a series of time points for SDS-PAGE and Western blotting to examine the modifications of cTnT and other myofibrillar proteins.
Calpain inhibition. To test whether endogenous calpain in the cardiac muscle contributes to TnT NH2-terminal modification, several different calpain inhibitors were applied to the TRITON® X-100 extraction procedure. […] TRITON® X-100 treatment of mouse ventricular muscle strips was carried out as above in the presence or absence of 100 μM hydrogen peroxide and the effect on cTnT modification was examined by Western blotting.
The effects of two cell membrane-permissible nonpeptide calpain inhibitors, PD 150606 and PD 151746 (Calbiochem), were also tested. […] PD 150606 and […] were separately added to the relaxing solution before TRITON® X-100 treatment and incubated with the minced ventricular muscle at 4° C. for 10 minutes to allow the inhibitor to penetrate cell membrane and bind to calpain. After TRITON® X-100 extraction, samples were collected for SDS-PAGE and Western blotting to examine the effect on cTnT modification.

As to `O=C(O)/C(S)=C/c1ccc(I)cc1` [PD150606], the “cTnT-ND production decreased to” value came out at 63% and the “decrease in cTnT-ND72-291 production” value is listed as “approximately 37%”.

In the case of `O=C(O)/C(S)=C/c1c[nH]c2ccc(F)cc12` [PD151746], the “cTnT-ND production decreased to” value was 50% and the “decrease in cTnT-ND72-291 production” value is listed as “approximately 50%”.

(Values after patent publication US8008021B2, “N-terminal truncation of cardiac troponin subunits and their roles in cardiovascular disease” (Evanston Northwestern Healthcare, priority 2006, dated 2011).)
